Source: patent US8933232B2, “1,3,4-oxadiazole and 1,3,4-thiadiazole beta-lactamase inhibitors” (priority 2012, dated 2015)
Where a name gives a salt, the structure may show the parent alone.

Tested on: bacterial strains that express KPC β-lactamases
Assay: Synergy MIC / standard BLI potentiation MIC assay against strains expressing KPC β-lactamases
Assay type: cell-based
Conditions: in the presence of a β-lactam; comparator Avibactam
Experimental: The experimental protocol was performed according to Clinical and Laboratory Standards Institute (CLSI) guidelines with modifications as described below (CLSI guidelines can be derived from the CLSI document M07-A9 published in January 2012: “Methods for Dilution Antimicrobial Susceptibility Tests for Bacteria That Grow Aerobically; Approved Standard-Ninth Edition”).
To prepare for MIC testing, frozen glycerol stocks of clinical isolates (Klebsiella pneumoniae, Eschericia coli, Enterobacter spp, Citrobacter spp, or Pseudomonas aeruginosa) were used to streak for isolated colonies on rich, non-selective, tryptic soy agar containing 5% sheep's blood (TSAB). Frozen glycerol stocks of laboratory engineered, isogenic E. coli strains, which contain cloned β-lactamase expressing plasmids were used to streak for isolated colonies on rich, selective LB agar supplemented with 25 μg/mL tetracycline to maintain the plasmid. All strains were incubated at 37° C. for 18-24 hrs.
On the day of testing, primary cultures were started by scraping off 5-10 colonies from the TSAB plates containing clinical strains or the tetracycline supplemented LB plates containing engineered strains. The clinical strain material was suspended in ˜5 mL of cation adjusted Mueller Hinton Broth (CAMHB) in 14 mL culture tubes. The engineered strain material was suspended in CAMHB (supplemented with 25 μg/mL tetracycline) in 14 mL culture tubes. All strains were incubated at 37° C. with aeration (200 rpm) for ˜2 hrs until the optical density at 600 nm (OD600) was >0.1.
The two compound components of the assay were each diluted in CAMHB and added to the 96-well broth microdilution assay plates. 50 μL of the β-lactam was added to each well of the assay plate in 2-fold dilutions with final concentrations ranging from 128 to 0.13 μg/mL. 25 μL, of the BLI compound was added to all wells in the broth microdilution plates at a final concentration of 4 μg/mL. Inoculum cultures were prepared by standardizing the primary cultures to OD600=0.1 and then adding 20 μL of the adjusted primary culture per 1 mL CAMHB for clinical strains or CAMHB (supplemented with tetracycline at 100 μg/mL) for engineered strains, so that the final inoculum density was ˜10^5 colony forming units per milliliter. Diluted inoculum cultures were used to inoculate 25 μl, per well in 96-well broth microdilution assay plates. The final volume of each well was 100 μL and contained a β-lactam at different concentrations, a BLIcompound at 4 μg/mL concentration, the bacterial culture at an OD600 of approximately 0.001 and when necessary tetracycline at 25 μg/mL.
Plates were incubated for 18-20 hours at 37° C. with aeration (200 rpm). Following incubation, growth was confirmed visually placing plates over a viewing apparatus (stand with a mirror underneath) and then OD600 was measured using a SpectraMax 340PC384 plate reader (Molecular Devices, Sunnyvale, Calif.). Growth was defined as turbidity that could be detected with the naked eye or achieving minimum OD600 of 0.1. MIC values were defined as the lowest concentration producing no visible turbidity.
The synergy MIC (sMIC) assay determines the concentration of the BLI required to potentiate the activity of a fixed concentration of a β-lactam antibiotic against β-lactamase producing bacterial strains. The experimental protocol was performed according to Clinical and Laboratory Standards Institute (CLSI) guidelines with modifications as described below (CLSI guidelines can be derived from the CLSI document M07-A9 published in January 2012: “Methods for Dilution Antimicrobial Susceptibility Tests for Bacteria That Grow Aerobically; Approved Standard-Ninth Edition”). […]

SMILES | more active than Avibactam for at least one bacterial strain that expresses KPC β-lactamase and/or better spectrum of activity against KPC strains
O=C1N2C[C@@H](CC[C@H]2c2nnco2)N1OS(=O)(=O)O [Compound 701, (2S,5R)-2-(1,3,4-oxadiazol-2-yl)-7-oxo-1,6-diazabicyclo[3.2.1]octan-6-yl hydrogen sulfate] | more active than Avibactam
NCc1nnc([C@@H]2CC[C@@H]3CN2C(=O)N3OS(=O)(=O)O)o1 [Compound 702, (2S,5R)-2-(5-(aminomethyl)-1,3,4-oxadiazol-2-yl)-7-oxo-1,6-diazabicyclo[3.2.1]octan-6-yl hydrogen sulfate] | more active than Avibactam
NCCc1nnc([C@@H]2CC[C@@H]3CN2C(=O)N3OS(=O)(=O)O)o1 [Compound 703, (2S,5R)-2-(5-(2-aminoethyl)-1,3,4-oxadiazol-2-yl)-7-oxo-1,6-diazabicyclo[3.2.1]octan-6-yl hydrogen sulfate] | more active than Avibactam
N=C(N)NCCc1nnc([C@@H]2CC[C@@H]3CN2C(=O)N3OS(=O)(=O)O)o1 [Compound 705, (2S,5R)-2-(5-(2-guanidinoethyl)-1,3,4-oxadiazol-2-yl)-7-oxo-1,6-diazabicyclo[3.2.1]octan-6-yl hydrogen sulfate] | more active than Avibactam
NC(=O)c1nnc([C@@H]2CC[C@@H]3CN2C(=O)N3OS(=O)(=O)O)o1 [Compound 706, (2S,5R)-2-(5-carbamoyl-1,3,4-oxadiazol-2-yl)-7-oxo-1,6-diaza-bicyclo[3.2.1]octan-6-yl hydrogen sulfate] | more active than Avibactam
O=C1N2C[C@@H](CC[C@H]2c2nnc(C3CNC3)o2)N1OS(=O)(=O)O [Compound 708, (2S,5R)-2-(5-(azetidin-3-yl)-1,3,4-oxadiazol-2-yl)-7-oxo-1,6-diazabicyclo[3.2.1]octan-6-yl hydrogen sulfate] | more active than Avibactam
N=C(N)N1CC(c2nnc([C@@H]3CC[C@@H]4CN3C(=O)N4OS(=O)(=O)O)o2)C1 [Compound 709, (2S,5R)-2-(5-(1-carbamimidoylazetidin-3-yl)-1,3,4-oxadiazol-2-yl)-7-oxo-1,6-diazabicyclo[3.2.1]octan-6-yl hydrogen sulfate] | more active than Avibactam
O=C1N2C[C@@H](CC[C@H]2c2nnc(C3CCNC3)o2)N1OS(=O)(=O)O (stereo partly drawn) [Compound 710, (2S,5R)-7-oxo-2-(5-(pyrrolidin-3-yl)-1,3,4-oxadiazol-2-yl)-1,6-diazabicyclo[3.2.1]octan-6-yl hydrogen sulfate] | more active than Avibactam
O=C1N2C[C@@H](CC[C@H]2c2nnc(C3CCNCC3)o2)N1OS(=O)(=O)O [Compound 711, (2S,5R)-7-oxo-2-(5-(piperidin-4-yl)-1,3,4-oxadiazol-2-yl)-1,6-diazabicyclo[3.2.1]octan-6-yl hydrogen sulfate] | more active than Avibactam
NCCCc1nnc([C@@H]2CC[C@@H]3CN2C(=O)N3OS(=O)(=O)O)o1 [Compound 720, (2S,5R)-2-(5-(3-aminopropyl)-1,3,4-oxadiazol-2-yl)-7-oxo-1,6-diazabicyclo[3.2.1]octan-6-yl hydrogen sulfate] | more active than Avibactam
N=C(N)NCc1nnc([C@@H]2CC[C@@H]3CN2C(=O)N3OS(=O)(=O)O)s1 [Compound 721, (2S,5R)-2-(5-(guanidinomethyl)-1,3,4-thiadiazol-2-yl)-7-oxo-1,6-diazabicyclo[3.2.1]octan-6-yl hydrogen sulfate] | more active than Avibactam
CNCCc1nnc([C@@H]2CC[C@@H]3CN2C(=O)N3OS(=O)(=O)O)o1 [Compound 722, (2S,5R)-2-(5-(2-(methylamino)ethyl)-1,3,4-oxadiazol-2-yl)-7-oxo-1,6-diazabicyclo[3.2.1]octan-6-yl hydrogen sulfate] | more active than Avibactam
N=C(N)NCC1(c2nnc([C@@H]3CC[C@@H]4CN3C(=O)N4OS(=O)(=O)O)o2)CC1 [Compound 723, (2S,5R)-2-(5-(1-(guanidinomethyl)cyclopropyl)-1,3,4-oxadiazol-2-yl)-7-oxo-1,6-diazabicyclo[3.2.1]octan-6-yl hydrogen sulfate] | more active than Avibactam
NC1(Cc2nnc([C@@H]3CC[C@@H]4CN3C(=O)N4OS(=O)(=O)O)o2)CC1 [Compound 724, (2S,5R)-2-(5-((1-aminocyclopropyl)methyl)-1,3,4-oxadiazol-2-yl)-7-oxo-1,6-diazabicyclo[3.2.1]octan-6-yl hydrogen sulfate] | more active than Avibactam
O=C1N2C[C@@H](CC[C@H]2c2nnc(CNC3CNC3)o2)N1OS(=O)(=O)O [Compound 726, (2S,5R)-2-(5-((azetidin-3-ylamino)methyl)-1,3,4-oxadiazol-2-yl)-7-oxo-1,6-diazabicyclo[3.2.1]octan-6-yl hydrogen sulfate] | more active than Avibactam
N[C@H]1C[C@H](c2nnc([C@@H]3CC[C@@H]4CN3C(=O)N4OS(=O)(=O)O)o2)C1 [Compound 727, (2S,5R)-2-(5-((1r,3S)-3-aminocyclobutyl)-1,3,4-oxadiazol-2-yl)-7-oxo-1,6-diazabicyclo[3.2.1]octan-6-yl hydrogen sulfate] | more active than Avibactam
N[C@H]1C[C@@H](Cc2nnc([C@@H]3CC[C@@H]4CN3C(=O)N4OS(=O)(=O)O)o2)C1 [Compound 728, (2S,5R)-2-(5-(((1s,3R)-3-aminocyclobutyl)methyl)-1,3,4-oxadiazol-2-yl)-7-oxo-1,6-diazabicyclo[3.2.1]octan-6-yl hydrogen sulfate] | more active than Avibactam
N[C@@H]1CC[C@H](c2nnc([C@@H]3CC[C@@H]4CN3C(=O)N4OS(=O)(=O)O)o2)C1 [Compound 729, (2S,5R)-2-(5-((1S,3R)-3-aminocyclopentyl)-1,3,4-oxadiazol-2-yl)-7-oxo-1,6-diazabicyclo[3.2.1]octan-6-yl hydrogen sulfate] | more active than Avibactam
N=C(N)NCC(O)Cc1nnc([C@@H]2CC[C@@H]3CN2C(=O)N3OS(=O)(=O)O)o1 (stereo partly drawn) [Compound 730, (2S,5R)-2-(5-(3-guanidino-2-hydroxypropyl)-1,3,4-oxadiazol-2-yl)-7-oxo-1,6-diazabicyclo[3.2.1]octan-6-yl hydrogen sulfate] | more active than Avibactam
N=C(N)NC[C@@H](O)c1nnc([C@@H]2CC[C@@H]3CN2C(=O)N3OS(=O)(=O)O)o1 [Compound 731, (2S,5R)-2-(5-((R)-2-guanidino-1-hydroxyethyl)-1,3,4-oxadiazol-2-yl)-7-oxo-1,6-diazabicyclo[3.2.1]octan-6-yl hydrogen sulfate] | more active than Avibactam
